The values below come from PMC5592720 (Planta medica, 2013).

One may read the IC50 as the concentration that gives 50% inhibition. Higher therefore signals weaker potency in that assay. The term Papp A→B denotes how fast a substance crosses the layer from the apical side. One may read the Papp B→A as the apparent permeability from the basolateral to the apical side of a cell layer. One may read the efflux ratio as the permeability from basolateral to apical divided by that in the opposite direction, in the common usage. By half-life is commonly meant how long it takes for the measured level to halve. Read a low half-life as fast loss.

Data set [1] deals with T1, CYP2D6 (Homo sapiens, UniProt P10635). Briefly: biochemical.
T1 sequence (P10635 whole entry): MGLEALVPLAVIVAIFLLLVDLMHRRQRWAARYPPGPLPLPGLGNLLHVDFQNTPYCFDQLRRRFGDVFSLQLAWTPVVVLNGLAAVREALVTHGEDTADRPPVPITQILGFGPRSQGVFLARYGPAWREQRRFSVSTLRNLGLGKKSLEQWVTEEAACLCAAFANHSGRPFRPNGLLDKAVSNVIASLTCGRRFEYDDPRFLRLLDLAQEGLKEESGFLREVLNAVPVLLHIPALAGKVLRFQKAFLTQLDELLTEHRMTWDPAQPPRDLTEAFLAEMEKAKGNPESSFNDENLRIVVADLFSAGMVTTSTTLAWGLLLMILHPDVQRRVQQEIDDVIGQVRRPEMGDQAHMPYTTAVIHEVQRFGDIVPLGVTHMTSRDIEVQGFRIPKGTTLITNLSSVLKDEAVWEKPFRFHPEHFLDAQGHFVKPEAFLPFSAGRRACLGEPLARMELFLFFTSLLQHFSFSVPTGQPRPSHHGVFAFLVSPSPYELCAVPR
The target in data set [2] is T2, CYP2C19 (Homo sapiens, UniProt P33261). Briefly: Inhibition of cytochrome P450 2C19. The following applies: words; table prints 2C19.
T2 sequence (P33261 whole entry): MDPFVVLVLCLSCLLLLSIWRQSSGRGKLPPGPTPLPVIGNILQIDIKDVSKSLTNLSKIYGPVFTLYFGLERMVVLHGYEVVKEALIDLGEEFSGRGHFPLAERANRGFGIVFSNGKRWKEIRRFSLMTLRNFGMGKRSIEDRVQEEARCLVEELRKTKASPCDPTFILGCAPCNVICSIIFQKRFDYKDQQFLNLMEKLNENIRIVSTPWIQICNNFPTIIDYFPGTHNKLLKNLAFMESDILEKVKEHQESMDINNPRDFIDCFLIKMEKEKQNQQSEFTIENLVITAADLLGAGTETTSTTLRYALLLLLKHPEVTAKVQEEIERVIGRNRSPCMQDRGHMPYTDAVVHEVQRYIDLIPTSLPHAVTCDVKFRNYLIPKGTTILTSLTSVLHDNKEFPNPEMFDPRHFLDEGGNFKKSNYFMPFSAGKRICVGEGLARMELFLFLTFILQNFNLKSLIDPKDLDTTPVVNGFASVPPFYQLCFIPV
The nature of data set [3]: Stability in simulated intestinal fluid. The class given is in vitro ADME. As to conditions: for % RD of dioscin depletion / % RD of diosgenin depletion: RD = relative difference.
Data set [4] deals with T3, CYP1A2 (Homo sapiens, UniProt P05177).
T3 sequence (P05177 1-516): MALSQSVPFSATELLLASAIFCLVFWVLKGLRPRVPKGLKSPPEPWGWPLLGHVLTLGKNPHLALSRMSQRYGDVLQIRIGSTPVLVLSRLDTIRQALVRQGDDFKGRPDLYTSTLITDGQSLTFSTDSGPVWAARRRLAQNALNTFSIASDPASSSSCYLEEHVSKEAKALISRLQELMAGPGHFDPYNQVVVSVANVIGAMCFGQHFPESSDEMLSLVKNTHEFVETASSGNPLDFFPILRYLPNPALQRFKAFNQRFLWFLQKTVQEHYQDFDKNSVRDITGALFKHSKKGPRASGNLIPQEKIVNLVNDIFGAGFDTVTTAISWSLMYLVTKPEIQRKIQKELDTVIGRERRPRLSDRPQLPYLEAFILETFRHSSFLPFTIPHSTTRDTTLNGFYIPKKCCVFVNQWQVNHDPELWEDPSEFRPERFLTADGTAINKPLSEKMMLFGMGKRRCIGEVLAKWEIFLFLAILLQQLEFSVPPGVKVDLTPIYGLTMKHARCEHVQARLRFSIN
As to the kind of experiment: Inhibition of cytochrome P450 1A2.

The subject of a further data set is Caco-2 cell monolayers. As to the kind of experiment: in vitro. The class given is in vitro ADME, human. The following applies: for % Transport Absorptive direction (A–B) / % Transport Secretory direction (A–B): Caco-2 monolayers, 1% HPβCD, 2 h; for Intestinal permeability across Caco-2 monolayers (rating): relative to atenolol and propranolol. A general note: Caco-2 monolayers are a common model of the intestinal barrier.

A short description of a further data set: in vitro. Type of data set: in vitro ADME, human. As to conditions: human, Caco-2.
The next data set deals with CYP3A4 (Homo sapiens, UniProt P08684). As to the kind of experiment: Inhibition of cytochrome P450 3A4.
Chain of CYP3A4 (P08684 whole entry): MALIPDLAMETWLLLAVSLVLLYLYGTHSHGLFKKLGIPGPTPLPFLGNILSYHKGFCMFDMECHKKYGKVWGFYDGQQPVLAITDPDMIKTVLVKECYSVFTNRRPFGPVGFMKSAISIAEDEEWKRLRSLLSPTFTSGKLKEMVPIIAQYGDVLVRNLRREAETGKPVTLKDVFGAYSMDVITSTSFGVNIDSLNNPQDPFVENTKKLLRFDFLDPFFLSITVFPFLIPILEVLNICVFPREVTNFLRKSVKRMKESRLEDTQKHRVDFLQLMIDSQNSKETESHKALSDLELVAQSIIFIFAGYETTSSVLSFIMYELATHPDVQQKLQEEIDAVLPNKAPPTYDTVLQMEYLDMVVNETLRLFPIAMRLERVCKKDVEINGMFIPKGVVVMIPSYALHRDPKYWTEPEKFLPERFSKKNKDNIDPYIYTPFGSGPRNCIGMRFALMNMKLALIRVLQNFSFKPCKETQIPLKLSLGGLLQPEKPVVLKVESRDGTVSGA
For data set [5] the following is noted: rat, cited from earlier work.
Data set [6] deals with T1, CYP2D6.
A short description of data set [7]: Phase II metabolic stability in S9 fractions. The class given is in vitro ADME, human.
Data set [8] can be described thus: Stability in simulated gastric fluid. Type of data set: in vitro ADME. As to conditions: for % RD of dioscin depletion / % RD of diosgenin depletion: RD = relative difference; for Degradation (depletion) in SGF: SGF pH 1.2, end of incubation (b9 prints 3-hour incubation).
Data set [9] can be described thus: Phase I metabolic stability in human liver microsomes. The following applies: pooled human liver microsomes; for Stability in HLM (Phase I): up to 180 min, words. Type of data set: in vitro ADME.
The conditions of data set [10]: cited from earlier work.
In data set [11] the target is T2, CYP2C19.
The target in data set [12] is T3, CYP1A2.
The mark [13] stands for this setting: IC50 3A4, cDNA baculovirus-expressed enzyme, fluorescence substrate.
[14] abbreviates: IC50 CYP3A4, text, catalytic activity of CYP3A4.

Values joined by “and” are separate entries in the source; they are usually repeats but may differ in a detail not shown here. Equal entries are not always repeated. Where two headings read alike, the source gives them in different places.

Turning to `C[C@@H]1CC[C@@]2(OC1)O[C@H]1C[C@H]3[C@@H]4CC=C5C[C@@H](O[C@@H]6O[C@H](CO)[C@@H](O[C@@H]7O[C@@H](C)[C@H](O)[C@@H](O)[C@H]7O)[C@H](O)[C@H]6O[C@@H]6O[C@@H](C)[C@H](O)[C@@H](O)[C@H]6O)CC[C@]5(C)[C@H]4CC[C@]3(C)[C@H]1[C@@H]2C` [Dioscin, dioscin], the IC50 was over 50 µM at CYP2D6 [1], over 50 µM at CYP1A2 [4], 33 ± 4 µM against CYP3A4 (setting [13]) and 33.4 µM against CYP3A4 (setting [14]). The “Effect on CYP 2C9 as printed in text (other CYP enzymes)” value at CYP2C19 [2] is recorded as “not affected”. Further, the “% RD of dioscin depletion” value in data set [3] (SIF pH 6.8, 60 min) is given as 4.3%; in [3] (SIF pH 6.8, 120 min), 9.9%; in data set [3] (SIF pH 6.8, 180 min), 11.6%; in [8] (SGF pH 1.2, 30 min), 16.7%; in data set [8] (SGF pH 1.2, 60 min), 23.6%; in data set [8] (SGF pH 1.2, 120 min) it was 28.3%. The “Amount of dioscin in SIF” value is 41.1 ± 0.8 µg/mL in [3] (SIF pH 6.8, incubation 0 min); 39.3 ± 1.0 µg/mL in [3] (SIF pH 6.8, incubation 60 min); 37.0 ± 1.3 µg/mL in data set [3] (SIF pH 6.8, incubation 120 min); 36.3 ± 1.1 µg/mL in [3] (SIF pH 6.8, incubation 180 min). Moreover, the “Effect on CYP 1A2 (other CYP enzymes)” value at CYP1A2 [4] (words) is given as “not affected”. The “Efflux across Caco-2 monolayer” value in the data set on Caco-2 cell monolayers (Caco-2, words) is reported as “no significant efflux”. Moreover, in the data set with Caco-2 cell monolayers, the “% Transport Absorptive direction (A–B)” value was 7.5% and 7.5 ± 0.8%. Also, the “% Transport Secretory direction (A–B)” value with Caco-2 cell monolayers is 11% and 11 ± 1%. The “Intestinal permeability across Caco-2 monolayers (rating)” value in the data set with Caco-2 cell monolayers was “moderate”. In “in vitro”, this compound had a Papp A→B at 2 h of 15 ± 1 ×10⁻⁶ cm/s. This compound also yielded a Papp B→A at 2 h in “in vitro” of 20 ± 3 ×10⁻⁶ cm/s. Besides, the efflux ratio at 120 min in the data set “in vitro” was found to be 1.3. Besides, in data set [5] (oral), the “Half-life after oral administration” value is 1540 min. Further, in data set [5], the Oral bioavailability entry is on record as “low oral bioavailability”. The “Effect on CYP 2D6 (other CYP enzymes)” value on CYP2D6 [6] (words) was “not affected”. In data set [7] (S9 fractions, dioscin 50 μM), the “Compound detected after incubation in S9 fractions” value is “more than 50%”. Moreover, the “Stability in S9 fraction (Phase II)” value in [7] (S9 fractions, words) is recorded as “relatively stable”. The “Degradation (depletion) in SGF” value in data set [8] was 28.3%. In addition, the “Amount of dioscin in SGF” value in data set [8] (SGF pH 1.2, incubation 0 min) was 45.0 ± 4.0 µg/mL; in data set [8] (SGF pH 1.2, incubation 30 min) it was 37.5 ± 1.2 µg/mL; in [8] (SGF pH 1.2, incubation 60 min) it was 34.4 ± 1.1 µg/mL; in data set [8] (SGF pH 1.2, incubation 120 min) it was 32.3 ± 1.0 µg/mL. The “Dioscin still detected after incubation in SGF” value in data set [8] (after 3-hour incubation in SGF as printed) is 71.7%. Moreover, the “Compound detected after incubation in HLM” value in data set [9] (dioscin 50 μM) is reported as “more than 50%”. Besides, in data set [9], the “Stability in HLM (Phase I)” value is recorded as “relatively stable”.
In the case of lucifer yellow [Ly, reference compound], the “Papp of Ly (monolayer integrity marker)” value with Caco-2 cell monolayers (Caco-2) was 2.0 ± 0.5 × 10^−6 cm/s.
Take `C[C@@H]1CC[C@@]2(OC1)O[C@H]1C[C@H]3[C@@H]4CC=C5C[C@@H](O)CC[C@]5(C)[C@H]4CC[C@]3(C)[C@H]1[C@@H]2C` [Diosgenin, diosgenin]: the Aqueous solubility entry in [10] is listed as “poor aqueous solubility”. The IC50 is over 50 µM at CYP2D6 [1], over 50 µM against CYP1A2 [4], 17 ± 4 µM against CYP3A4 (setting [13]) and 21.7 µM against CYP3A4 (setting [14]). Moreover, the “% RD of diosgenin depletion” value in [3] (SIF pH 6.8, 60 min) was 1.28%; in data set [3] (SIF pH 6.8, 120 min), 4.21%; in [3] (SIF pH 6.8, 180 min), 4.80%; in data set [8] (SGF pH 1.2, 30 min) it was 3.62%; in data set [8] (SGF pH 1.2, 60 min) it was 8.31%; in data set [8] (SGF pH 1.2, 120 min) it was 8.59%. In [3] (SIF pH 6.8, after 3 hours of incubation), the “Degradation (disappearance) in SIF” value was < 10% and 4.8%. Besides, the “Amount of diosgenin in SIF” value in data set [3] (SIF pH 6.8, incubation 0 min) was 57.0 ± 1.0 µg/mL; in [3] (SIF pH 6.8, incubation 60 min) it was 56.2 ± 1.9 µg/mL; in [3] (SIF pH 6.8, incubation 120 min) it was 54.6 ± 2.0 µg/mL; in data set [3] (SIF pH 6.8, incubation 180 min), 54.2 ± 3.2 µg/mL. Also, the “% Transport Absorptive direction (A–B)” value with Caco-2 cell monolayers is 3.8% and 3.8 ± 0.8%. The “% Transport Secretory direction (A–B)” value in the data set on Caco-2 cell monolayers was 21% and 21 ± 1%. Also, the “Intestinal permeability across Caco-2 monolayers (rating)” value in the data set on Caco-2 cell monolayers is recorded as “moderate”. Moreover, in the data set with Caco-2 cell monolayers (transport buffer (HBSS) without HPβCD, after 2-hour incubation), the “Diosgenin levels in apical or basolateral side” value is “no diosgenin levels were detected”. For the same compound, in “in vitro”, the Papp A→B at 2 h was 9.6 ± 0.7 ×10⁻⁶ cm/s. The Papp B→A at 2 h in “in vitro” stood at 48 ± 4 ×10⁻⁶ cm/s. Besides, in “in vitro”, the efflux ratio at 120 min turned out to be 5. Further, the “Effect on CYP 2C9 as printed in text (other CYP enzymes)” value on CYP2C19 [11] is “not affected”. For the same compound, the “Effect on CYP 2D6 (other CYP enzymes)” value at CYP2D6 [6] is “not affected”. Moreover, the “Intrinsic clearance in S9 fraction” value in data set [7] (S9 fraction, diosgenin 100 μM) was determined as 7 mL/min/kg. Besides, the half-life at 100 μM in data set [7] (human, s9) is 11.3 min. In data set [8], the “Degradation (depletion) in SGF” value is < 10% and 8.5%. Besides, the “Amount of diosgenin in SGF” value in data set [8] (SGF pH 1.2, incubation 0 min) was 52.4 ± 0.9 µg/mL; in data set [8] (SGF pH 1.2, incubation 30 min), 50.5 ± 0.9 µg/mL; in data set [8] (SGF pH 1.2, incubation 60 min) it was 48.0 ± 1.9 µg/mL; in data set [8] (SGF pH 1.2, incubation 120 min), 47.9 ± 1.1 µg/mL. In addition, in data set [9], the “Stability in HLM (Phase I)” value is given as “stable”. The “Effect on CYP 1A2 (other CYP enzymes)” value at CYP1A2 [12] is given as “not affected”.
